Tested on: MV-4-11 cells
Test: Gene expression microarray analysis (Affymetrix PrimeView) and GSEA
Assay type: cell-based, human
Set-up: RFU PODN (11730768_x_at) / Fold change /veh PODN (11730768_x_at) / RFU LINC00158 (11744669_a_at) / Fold change /veh LINC00158 (11744669_a_at) / RFU DUSP10 (11751237_a_at) / Fold change /veh DUSP10 (11751237_a_at) / RFU ID3 (11757404_x_at) / Fold change /veh ID3 (11757404_x_at) / RFU PLEKHG5 (11737974_s_at) / Fold change /veh PLEKHG5 (11737974_s_at) / RFU LRRC4B (11730491_at) / Fold change /veh LRRC4B (11730491_at) / RFU GIMAP4 (11747438_a_at) / Fold change /veh GIMAP4 (11747438_a_at) / RFU KRT8 (11758183_x_at) / Fold change /veh KRT8 (11758183_x_at) / RFU CNN1 (11734310_a_at) / Fold change /veh CNN1 (11734310_a_at) / RFU VPS37D (11726825_at) / Fold change /veh VPS37D (11726825_at) / RFU C10orf10 (11716522_x_at) / Fold change /veh C10orf10 (11716522_x_at) / RFU KIR2DL2 /// KIR2DL4 /// KIR2DL5A /// KIR2DL5B /// KIR2DS1 /// KIR2DS2 /// KIR2DS3 /// KIR2DS4 /// KIR3DL3 /// KIR3DL3 /// KIR3DS1 (11738374_at) / Fold change /veh KIR2DL2 /// KIR2DL4 /// KIR2DL5A /// KIR2DL5B /// KIR2DS1 /// KIR2DS2 /// KIR2DS3 /// KIR2DS4 /// KIR3DL3 /// KIR3DL3 /// KIR3DS1 (11738374_at) / RFU C1QL1 (11718748_at) / Fold change /veh C1QL1 (11718748_at) / RFU TMPRSS4 (11747572_a_at) / Fold change /veh TMPRSS4 (11747572_a_at) / RFU HAMP (11756126_x_at) / Fold change /veh HAMP (11756126_x_at) / RFU RNFT2 (11725882_a_at) / Fold change /veh RNFT2 (11725882_a_at) / RFU NR4A2 (11747474_a_at) / Fold change /veh NR4A2 (11747474_a_at) / RFU ABCC12 (11746883_a_at) / Fold change /veh ABCC12 (11746883_a_at) / RFU TMEM136 (11760407_x_at) / Fold change /veh TMEM136 (11760407_x_at) / RFU CLDN22 /// WWC2 (11732394_at) / Fold change /veh CLDN22 /// WWC2 (11732394_at) / RFU HLA-DPB1 (11760878_x_at) / Fold change /veh HLA-DPB1 (11760878_x_at) / RFU SPINT1 (11716480_a_at) / Fold change /veh SPINT1 (11716480_a_at) / RFU GAP43 (11754022_s_at) / Fold change /veh GAP43 (11754022_s_at) / RFU A4GNT (11735810_at) / Fold change /veh A4GNT (11735810_at) / RFU PRB3 (11715151_x_at) / Fold change /veh PRB3 (11715151_x_at) / RFU TUBB4B (11761932_at) / Fold change /veh TUBB4B (11761932_at) / RFU CAPN14 (11732068_a_at) / Fold change /veh CAPN14 (11732068_a_at) / RFU TMCC2 (11721928_a_at) / Fold change /veh TMCC2 (11721928_a_at) / RFU IRGQ (11745062_a_at) / Fold change /veh IRGQ (11745062_a_at) / RFU FAM174B (11720279_a_at) / Fold change /veh FAM174B (11720279_a_at) / RFU TMPRSS4 (11748680_a_at) / Fold change /veh TMPRSS4 (11748680_a_at) / RFU FAM212B (11763350_a_at) / Fold change /veh FAM212B (11763350_a_at) / RFU PLEKHG5 (11743358_a_at) / Fold change /veh PLEKHG5 (11743358_a_at) / RFU ZSCAN30 (11745921_a_at) / Fold change /veh ZSCAN30 (11745921_a_at) / RFU CMKLR1 (11741424_a_at) / Fold change /veh CMKLR1 (11741424_a_at) / RFU LOC101060620 /// MAPK8IP1 (11723275_at) / Fold change /veh LOC101060620 /// MAPK8IP1 (11723275_at) / RFU SPTSSB (11747773_x_at) / Fold change /veh SPTSSB (11747773_x_at) / RFU PRSS12 (11739890_at) / Fold change /veh PRSS12 (11739890_at) / RFU BIN1 (11741810_x_at) / Fold change /veh BIN1 (11741810_x_at) / RFU WNT11 (11732464_a_at) / Fold change /veh WNT11 (11732464_a_at) / RFU C10orf10 (11716521_a_at) / Fold change /veh C10orf10 (11716521_a_at) / RFU C5orf56 (11738089_at) / Fold change /veh C5orf56 (11738089_at) / RFU CYB561 (11721691_x_at) / Fold change /veh CYB561 (11721691_x_at) / RFU ANKRD19P (11752326_a_at) / Fold change /veh ANKRD19P (11752326_a_at) / RFU OR2T12 /// OR2T33 /// OR2T8 (11738714_s_at) / Fold change /veh OR2T12 /// OR2T33 /// OR2T8 (11738714_s_at) / RFU VCAN (11748164_a_at) / Fold change /veh VCAN (11748164_a_at) / RFU JSRP1 (11732532_at) / Fold change /veh JSRP1 (11732532_at) / RFU KRTAP10-11 (11738290_x_at) / Fold change /veh KRTAP10-11 (11738290_x_at) / RFU MYO3A (11730013_a_at) / Fold change /veh MYO3A (11730013_a_at) / RFU EBF3 (11725865_a_at) / Fold change /veh EBF3 (11725865_a_at) / RFU CAMK2N1 (11719241_x_at) / Fold change /veh CAMK2N1 (11719241_x_at) / RFU C5orf56 (11738088_a_at) / Fold change /veh C5orf56 (11738088_a_at) / RFU OLFML3 (11715873_a_at) / Fold change /veh OLFML3 (11715873_a_at) / RFU LOC100653217 /// NTM (11731650_a_at) / Fold change /veh LOC100653217 /// NTM (11731650_a_at) / RFU MAPK11 (11762145_a_at) / Fold change /veh MAPK11 (11762145_a_at) / RFU FIZ1 (11724087_x_at) / Fold change /veh FIZ1 (11724087_x_at) / RFU OASL (11726364_x_at) / Fold change /veh OASL (11726364_x_at) / RFU SOX15 (11748057_x_at) / Fold change /veh SOX15 (11748057_x_at) / RFU CD79A (11719716_a_at) / Fold change /veh CD79A (11719716_a_at) / RFU HIST1H1D (11736915_at) / Fold change /veh HIST1H1D (11736915_at) / RFU CASKIN2 (11723855_a_at) / Fold change /veh CASKIN2 (11723855_a_at) / RFU LOC730098 (11760151_x_at) / Fold change /veh LOC730098 (11760151_x_at) / RFU OR4N2 (11742367_at) / Fold change /veh OR4N2 (11742367_at) / RFU PRRT2 (11749266_a_at) / Fold change /veh PRRT2 (11749266_a_at) / RFU SNX32 (11753110_a_at) / Fold change /veh SNX32 (11753110_a_at) / RFU CDHR5 (11726645_a_at) / Fold change /veh CDHR5 (11726645_a_at) / RFU RCAN1 (11760418_a_at) / Fold change /veh RCAN1 (11760418_a_at) / RFU FAM167A (11723789_a_at) / Fold change /veh FAM167A (11723789_a_at) / RFU FAM26E (11764081_at) / Fold change /veh FAM26E (11764081_at) / RFU ISYNA1 (11749810_s_at) / Fold change /veh ISYNA1 (11749810_s_at) / RFU ACY1 (11761880_at) / Fold change /veh ACY1 (11761880_at) / RFU 11764098_at / Fold change /veh 11764098_at / RFU SAMD14 (11745864_x_at) / Fold change /veh SAMD14 (11745864_x_at) / RFU NPB (11741838_a_at) / Fold change /veh NPB (11741838_a_at) / RFU TMPRSS6 (11731388_a_at) / Fold change /veh TMPRSS6 (11731388_a_at) / RFU KRTAP10-2 (11738614_at) / Fold change /veh KRTAP10-2 (11738614_at) / RFU ARHGAP8 /// PRR5-ARHGAP8 (11727945_x_at) / Fold change /veh ARHGAP8 /// PRR5-ARHGAP8 (11727945_x_at) / RFU KRTAP5-7 /// NADSYN1 (11734609_at) / Fold change /veh KRTAP5-7 /// NADSYN1 (11734609_at) / RFU RASL12 (11751679_a_at) / Fold change /veh RASL12 (11751679_a_at) / RFU CDKN2B (11736163_a_at) / Fold change /veh CDKN2B (11736163_a_at) / RFU PRF1 (11729649_at) / Fold change /veh PRF1 (11729649_at) / RFU, ZNF638 /// ZNF638-IT1 / Fold change vs veh, ZNF638 /// ZNF638-IT1 / RFU, PANK3 / Fold change vs veh, PANK3 / RFU, SH3YL1 / Fold change vs veh, SH3YL1 / RFU, ZEB2 / Fold change vs veh, ZEB2 / RFU, NRIP1 / Fold change vs veh, NRIP1 / RFU, PTTG1IP / Fold change vs veh, PTTG1IP / RFU, CAPN2 / Fold change vs veh, CAPN2 / RFU, MED14 / Fold change vs veh, MED14 / RFU, SNORA58 / Fold change vs veh, SNORA58 / RFU, C1orf63 / Fold change vs veh, C1orf63 / RFU, LRRFIP1 / Fold change vs veh, LRRFIP1 / RFU, NDUFAF7 / Fold change vs veh, NDUFAF7 / RFU, SLC12A2 / Fold change vs veh, SLC12A2 / RFU, IBTK / Fold change vs veh, IBTK / RFU, ESF1 / Fold change vs veh, ESF1 / Fold change vs veh, TMEM50B / RFU, TAOK1 / Fold change vs veh, TAOK1 / RFU, ACBD3 / Fold change vs veh, ACBD3 / RFU, TMA16 / Fold change vs veh, TMA16 / RFU, RWDD3 / Fold change vs veh, RWDD3 / RFU, BCAT1 / Fold change vs veh, BCAT1 / RFU, EDEM3 / Fold change vs veh, EDEM3 / RFU, TMEM33 / Fold change vs veh, TMEM33 / RFU, WDR75 / Fold change vs veh, WDR75 / RFU, AHCTF1 / Fold change vs veh, AHCTF1 / RFU, TFRC / Fold change vs veh, TFRC / RFU, ZDHHC17 / Fold change vs veh, ZDHHC17 / RFU, NOM1 / Fold change vs veh, NOM1 / RFU, ARL8B / Fold change vs veh, ARL8B / RFU, ZBTB11 / Fold change vs veh, ZBTB11 / RFU, TAMM41 / Fold change vs veh, TAMM41 / RFU, KIAA1704 /// LOC100996395 / Fold change vs veh, KIAA1704 /// LOC100996395 / RFU, ING1 / Fold change vs veh, ING1 / RFU, TRMT61B / Fold change vs veh, TRMT61B / RFU, FUBP3 / Fold change vs veh, FUBP3 / RFU, TP53 / Fold change vs veh, TP53 / RFU, TNKS2 / Fold change vs veh, TNKS2 / RFU, ZFP14 / Fold change vs veh, ZFP14 / RFU, ACTR2 / Fold change vs veh, ACTR2 / RFU, PPP3R1 / Fold change vs veh, PPP3R1 / RFU, PIK3R1 / Fold change vs veh, PIK3R1 / RFU, HNRNPA1 / Fold change vs veh, HNRNPA1 / RFU, RNF170 / Fold change vs veh, RNF170 / RFU, ZNF28 / Fold change vs veh, ZNF28 / RFU, RNGTT / Fold change vs veh, RNGTT / RFU, OGT / Fold change vs veh, OGT / RFU, BRD1 / Fold change vs veh, BRD1 / RFU, MARS / Fold change vs veh, MARS / RFU, ZNF655 / Fold change vs veh, ZNF655 / RFU, FAHD1 / Fold change vs veh, FAHD1 / RFU, BDP1 / Fold change vs veh, BDP1 / RFU, LRRCC1 / Fold change vs veh, LRRCC1 / RFU, ARID1A / Fold change vs veh, ARID1A / RFU, ZNF146 / Fold change vs veh, ZNF146 / RFU, ZNF330 / Fold change vs veh, ZNF330 / RFU, GPN3 / Fold change vs veh, GPN3 / RFU, C9orf123 / Fold change vs veh, C9orf123 / RFU, N4BP2L2 / Fold change vs veh, N4BP2L2 / RFU, ARFIP1 / Fold change vs veh, ARFIP1 / RFU, FAM179B / Fold change vs veh, FAM179B / RFU, BCL10 / Fold change vs veh, BCL10 / RFU, UHRF1BP1L / Fold change vs veh, UHRF1BP1L / RFU, BET1 / Fold change vs veh, BET1 / RFU, CNOT2 / Fold change vs veh, CNOT2 / RFU, ZNF268 / Fold change vs veh, ZNF268 / Fold change vs veh, ZNF507 / RFU, DGCR2 / Fold change vs veh, DGCR2 / RFU, WDSUB1 / Fold change vs veh, WDSUB1 / Fold change vs veh, HSP90B1 /// MIR3652 / RFU, ADSS / Fold change vs veh, ADSS / RFU, GK / Fold change vs veh, GK / RFU, ZNF148 / Fold change vs veh, ZNF148 / RFU, TAF9 / Fold change vs veh, TAF9 / RFU, SLC1A5 / Fold change vs veh, SLC1A5 / RFU, SLMO2 / Fold change vs veh, SLMO2 / RFU, ABCC4 / Fold change vs veh, ABCC4 / RFU, LOC101060439 /// RAP1B / Fold change vs veh, LOC101060439 /// RAP1B / RFU, RFX7 / Fold change vs veh, RFX7 / RFU, GTPBP10 / Fold change vs veh, GTPBP10 / RFU, CNEP1R1 / Fold change vs veh, CNEP1R1 / RFU, BIVM-ERCC5 /// ERCC5 / Fold change vs veh, BIVM-ERCC5 /// ERCC5 / RFU, ILF3 / Fold change vs veh, ILF3 / RFU 11762660_at / Fold change /veh 11762660_at / RFU VCAN (11757783_s_at) / Fold change /veh VCAN (11757783_s_at) / RFU DDX43 (11728927_at) / Fold change /veh DDX43 (11728927_at) / RFU KRT8 (11758188_x_at) / Fold change /veh KRT8 (11758188_x_at) / RFU NKD1 (11759106_at) / Fold change /veh NKD1 (11759106_at) / RFU SRD5A1 (11742802_a_at) / Fold change /veh SRD5A1 (11742802_a_at) / RFU TPSAB1 /// TPSB2 (11721975_s_at) / Fold change /veh TPSAB1 /// TPSB2 (11721975_s_at) / RFU GSTM3 (11746129_a_at) / Fold change /veh GSTM3 (11746129_a_at) / RFU IL23R (11737362_x_at) / Fold change /veh IL23R (11737362_x_at) / RFU TMEM51 (11727254_a_at) / Fold change /veh TMEM51 (11727254_a_at) / RFU PIWIL2 (11732686_x_at) / Fold change /veh PIWIL2 (11732686_x_at) / RFU ORM1 (11744905_x_at) / Fold change /veh ORM1 (11744905_x_at) / RFU CCDC152 (11743942_at) / Fold change /veh CCDC152 (11743942_at) / RFU ECM1 (11717891_a_at) / Fold change /veh ECM1 (11717891_a_at) / RFU IL23R (11748794_a_at) / Fold change /veh IL23R (11748794_a_at) / RFU TNFAIP8L3 (11732012_x_at) / Fold change /veh TNFAIP8L3 (11732012_x_at) / RFU MBOAT4 (11741988_at) / Fold change /veh MBOAT4 (11741988_at) / RFU 11764193_at / Fold change /veh 11764193_at / RFU TMEM53 (11763286_at) / Fold change /veh TMEM53 (11763286_at) / RFU MAGEB2 (11727129_at) / Fold change /veh MAGEB2 (11727129_at) / RFU TMEM200A (11744735_a_at) / Fold change /veh TMEM200A (11744735_a_at) / RFU CCDC152 (11751479_a_at) / Fold change /veh CCDC152 (11751479_a_at) / RFU FAM211A (11726209_a_at) / Fold change /veh FAM211A (11726209_a_at) / RFU RGS16 (11746705_a_at) / Fold change /veh RGS16 (11746705_a_at) / RFU VCAN (11755009_s_at) / Fold change /veh VCAN (11755009_s_at) / RFU RHOB (11743442_s_at) / Fold change /veh RHOB (11743442_s_at) / RFU RGS16 (11720943_a_at) / Fold change /veh RGS16 (11720943_a_at) / RFU RGS16 (11720944_at) / Fold change /veh RGS16 (11720944_at) / RFU, VPS4B / Fold change vs veh, VPS4B / RFU, CREB1 / Fold change vs veh, CREB1 / RFU, DNAJC13 / Fold change vs veh, DNAJC13 / RFU, GNAQ / Fold change vs veh, GNAQ / RFU, CDK5R1 / Fold change vs veh, CDK5R1 / RFU, ZRANB3 / Fold change vs veh, ZRANB3 / RFU, CUL4A / Fold change vs veh, CUL4A / RFU, CCNY / Fold change vs veh, CCNY / RFU, UFL1 / Fold change vs veh, UFL1 / RFU, COG3 / Fold change vs veh, COG3 / RFU, DIAPH2 / Fold change vs veh, DIAPH2 / RFU, SKA2 / Fold change vs veh, SKA2 / RFU, AFF3 / Fold change vs veh, AFF3 / RFU, LMF1 / Fold change vs veh, LMF1 / RFU, IPO11 / Fold change vs veh, IPO11 / RFU, DFFB / Fold change vs veh, DFFB / RFU, FOXP1 / Fold change vs veh, FOXP1 / RFU, CARD8 / Fold change vs veh, CARD8 / RFU, STRN3 / Fold change vs veh, STRN3 / RFU, ADK / Fold change vs veh, ADK / RFU, RASSF2 / Fold change vs veh, RASSF2 / RFU, WIPF1 / Fold change vs veh, WIPF1 / RFU, LARP1B / Fold change vs veh, LARP1B / RFU, RASA1 / Fold change vs veh, RASA1 / RFU, RB1 / Fold change vs veh, RB1 / RFU, PPFIA1 / Fold change vs veh, PPFIA1 / RFU, MAT2A / Fold change vs veh, MAT2A / RFU, CCT5 / Fold change vs veh, CCT5 / RFU, WDR92 / Fold change vs veh, WDR92 / RFU, CUX1 / Fold change vs veh, CUX1 / RFU, TTC7A / Fold change vs veh, TTC7A / RFU, TMEM135 / Fold change vs veh, TMEM135 / RFU, DEPTOR / Fold change vs veh, DEPTOR / RFU, CPM / Fold change vs veh, CPM / RFU, DNAJB6 / Fold change vs veh, DNAJB6 / RFU, CACNA2D3 / Fold change vs veh, CACNA2D3 / RFU, DTX4 / Fold change vs veh, DTX4 / RFU, TFCP2 / Fold change vs veh, TFCP2 / RFU, GMCL1 /// GMCL1P1 / Fold change vs veh, GMCL1 /// GMCL1P1 / RFU, AEBP2 / Fold change vs veh, AEBP2 / RFU, SNHG1 /// SNORD22 /// SNORD25 /// SNORD26 /// SNORD27 /// SNORD28 /// SNORD29 /// SNORD31 / Fold change vs veh, SNHG1 /// SNORD22 /// SNORD25 /// SNORD26 /// SNORD27 /// SNORD28 /// SNORD29 /// SNORD31 / Fold change (Aza/veh), C12orf56 (ProbeSet 11735607_a_at) / Fold change (ACY-1035/veh), C12orf56 (ProbeSet 11735607_a_at) / Fold change (Aza/veh), FGFR1OP (ProbeSet 11751329_s_at) / Fold change (ACY-1035/veh), FGFR1OP (ProbeSet 11751329_s_at) / Fold change (Aza/veh), VPS36 (ProbeSet 11739960_a_at) / Fold change (ACY-1035/veh), VPS36 (ProbeSet 11739960_a_at) / RFU SYPL1 (11715823_x_at) / Fold change /veh SYPL1 (11715823_x_at) / RFU IGFBP7 (11715501_s_at) / Fold change /veh IGFBP7 (11715501_s_at) / RFU REEP3 (11722064_at) / Fold change /veh REEP3 (11722064_at) / RFU IGLL1 (11728026_x_at) / Fold change /veh IGLL1 (11728026_x_at): dose or concentration left out as unconfirmed
Settings: ProbeSet 11719493_s_at; LIST B

Nc1ncn([C@@H]2O[C@H](CO)[C@@H](O)[C@H]2O)c(=O)n1 [azacitidine]
Fold change vs veh, TAF9: 1.00

Source: paper PMC5218480 (PLoS ONE, 2017)
